The values below come from patent US20240398781A1, “SPIROCYCLIC CYCLIC MODULATORS OF CHOLESTEROL BIOSYNTHESIS AND THEIR USE FOR PROMOTING REMYELINATION” (GENENTECH, INC., priority 2021, published 2024).

The test system of one test is EpiSC-derived OPCs. In words: In vitro phenotypic screening of OPCs (MBP staining, high-content imaging). Format: cell-based, mouse. Particulars: percentage of MBP+ oligodendrocytes, 3 days, 0.5 nM to 1000 nM, read-out: OPC EC50. The method, boiled down:
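Readout: high-content imaging of MBP immunostaining around DAPI nuclei, giving percent oligodendrocytes, with EC50 from a Levenberg-Marquardt Hill fit. Epiblast stem cell-derived OPCs were plated on laminin at 150,000/cm^2 in growth-factor-free N2B27. They were exposed 3 days to an 8-point series, 0.5-1000 nM final, in two or more independent platings.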

For test [1], the system named is EBP (zymostenol accumulation in EpiSC-derived OPCs). In words: GC/MS-based sterol profiling, zymostenol accumulation in OPCs. The test is classed as cell-based, mouse. To be noted: EpiSC-derived OPCs, 24 hr treatment, 8 doses from 0.15 nM to 333 nM, read-out: Zymostenol GCMS EC50. The method, boiled down:
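EpiSC-derived OPCs (100,000/well) were treated 24 h in N2B27 without growth factors. Sterols were TMS-derivatized and analysed by GC/MS full-scan EI, quantified against cholesterol-d7. Zymostenol was normalized to the level after 24 h with 100 nM positive control reference.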

The next test addresses human EBP (Homo sapiens (Human), UniProt Q15125). In words: Competition binding assay (SPA, [3H]-Ifenprodil) to determine compound affinity to EBP. Particulars: read-out: hEBP SPA Ki. The procedure:
Membrane preparation: To examine compound binding affinity to EBP, human EBP was overexpressed in human embryonic kidney 293 cells. Cell pellet was lysed in 10 times weight binding buffer (50 mM Tris, 5 mM MgCl2, 0.1 mM EDTA, lx protease inhibitor cocktail, pH 7.5) on ice by using a dounce homogenizer. The solution was centrifuged at 25,000 g for 50 min at 4° C. The membrane pellet was re-suspended in binding buffer and run through a 25 5/8 gauge needle. After checking the concentration by Bradford assay, the whole cell membrane solution was adjusted to 20 mg/mL and stored at −80° C.
This binding solution was centrifuged at 400 g for 5 minutes to collect the bead/membrane mixture. After re-suspending the pellet in binding buffer at the same calculated volume with 0.01% BSA (Sigma A1933), the bead/membrane mixture was added in 384-well low-binding surface plate (PerkinElmer Cat #6057480) at 25 μl/well. Radioligand at different concentrations with and without the non-radio-labeled same ligand 5 uM (for nonspecific and total signal, respectively) was added to bring final volume to 50 µl/well with DMSO concentration at 0.1%. At equilibrium (3 hours after ligand addition), radiometric signal CPM was counted by using a Microbeta2 microplate counter (Perkinelmer).
Competition binding assay to determine compound affinity: The same conditions of the radioligand Kd study were used for compound single dose percentage inhibition and equilibrium dissociation constant Ki examinations, except 50 nL compound DMSO stock was pre-added in 384-well low-binding surface plate (PerkinElmer Cat #6057480) by Echo 550 (Labcyte) to reach the final concentration for single dose test at 1 uM, and dose response test from 0.06 nM to 5 uM (8 dose, 5 times dilution). A pre-incubated bead/membrane mixture was added in compound plate at 0.3 mg beads and […] membrane per well. […] At equilibrium (3 hours after ligand addition), radiometric signal was counted as described above. The percentage inhibition of compound at each testing concentration was calculated by normalizing each condition's CPM readout to full block (5 uM non-radiolabeled ligand) and non-block (DMSO) control conditions. Compound binding inhibition IC50 was determined by nonlinear regression fitting of percentage inhibition plot against compound concentration. Compound Ki was calculated from the equation Ki=IC50/(1+[L]/Kd), which [L] was radioligand concentration used in assay. All tests had N bigger or equal to 2.

Setting [2] is: [3H]-Ifenprodil 10 nM, HEK293 membrane overexpressing human EBP, Ki=IC50/(1+[L]/Kd).

Like-named read-outs stand apart in the source and are kept apart here.

Chain of human EBP (Q15125 whole entry): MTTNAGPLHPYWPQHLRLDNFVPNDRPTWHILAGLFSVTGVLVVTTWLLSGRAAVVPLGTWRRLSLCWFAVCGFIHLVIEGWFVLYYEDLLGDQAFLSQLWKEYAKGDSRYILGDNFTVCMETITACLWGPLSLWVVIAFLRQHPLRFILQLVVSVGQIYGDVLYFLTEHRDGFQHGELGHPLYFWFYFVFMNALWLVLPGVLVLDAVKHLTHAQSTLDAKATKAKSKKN

Turning to `Cc1cc(C(F)(F)F)ncc1[C@H]1CC[C@H](N2CCC3(C2)CS(=O)(=O)C3)CC1` [Compound 21B, 6-((1r,4r)-4-(4-Methyl-6-(trifluoromethyl)pyridin-3-yl)cyclohexyl)-2-thia-6-azaspiro[3.4]octane 2,2-dioxide], the EC50 came to 120 nM with EpiSC-derived OPCs (Mus musculus, 72 h) and 50 nM in test [1] (Mus musculus, 24 h). Further, the Ki on human EBP (setting [2]) was determined as 48 nM.

Regarding `O=S1(=O)CC2(CCN(C3CCN(c4ncc(C(F)(F)F)cc4Cl)CC3)C2)C1` [Compound 30, 6-(1-(3-chloro-5-(trifluoromethyl)pyridin-2-yl)piperidin-4-yl)-2-thia-6-azaspiro[3.4]octane 2,2-dioxide], the EC50 with EpiSC-derived OPCs (Mus musculus, 72 h) came out at 10 nM; in test [1] (Mus musculus, 24 h), 5 nM. In addition, the inhibition constant Ki on human EBP (setting [2]) was determined as 39 nM.

In the case of `O=S1(=O)CC2(CCN([C@@H]3CO[C@H](c4ccc(C(F)(F)F)cc4)C3)C2)C1` (stereo in doubt) [19C*, 6-((3S,5S)-5-(4-(Trifluoromethyl)phenyl)tetrahydrofuran-3-yl)-2-thia-6-azaspiro[3.4]octane 2,2-dioxide], the EC50 amounted to 270 nM in the test on EpiSC-derived OPCs (Mus musculus, 72 h) and 110 nM in test [1] (Mus musculus, 24 h). Besides, the Ki on human EBP (setting [2]) was found to be 34 nM.

With `CCn1nc([C@H]2CC[C@H](N3CCC4(C3)CS(=O)(=O)C4)CC2)cc1C(F)(F)F` [Compound 16, 6-((1r,4r)-4-(1-Ethyl-5-(trifluoromethyl)-1H-pyrazol-3-yl)cyclohexyl)-2-thia-6-azaspiro[3.4]octane 2,2-dioxide], the EC50 with EpiSC-derived OPCs (Mus musculus, 72 h) was found to be 41 nM; in test [1] (Mus musculus, 24 h) it was 12 nM. The Ki on human EBP (setting [2]) came out at 36 nM.

As to `Cc1nc(C(F)(F)F)ccc1N1CCC(N2CCC3(C2)CS(=O)(=O)C3)CC1` [Compound 29, 6-(1-(2-methyl-6-(trifluoromethyl)pyridin-3-yl)piperidin-4-yl)-2-thia-6-azaspiro[3.4]octane 2,2-dioxide], the EC50 amounted to 39 nM in the test on EpiSC-derived OPCs (Mus musculus, 72 h) and 7.1 nM in test [1] (Mus musculus, 24 h). Further, the Ki at human EBP (setting [2]) worked out at 45 nM.

With `O=S1(=O)CC2(CCN(C3CCN(c4ccc(C(F)(F)F)cc4)CC3)C2)C1` [Compound 4, 6-(1-(4-(trifluoromethyl)phenyl)piperidin-4-yl)-2-thia-6-azaspiro[3.4]octane 2,2-dioxide], the EC50 is 23 nM in the test with EpiSC-derived OPCs (Mus musculus, 72 h) and 2.5 nM in test [1] (Mus musculus, 24 h). Also, the Ki at human EBP (setting [2]) came out at 26 nM.

Consider `Cc1cc(C(F)(F)F)ncc1N1CCC(N2CCC3(C2)CS(=O)(=O)C3)CC1` [Compound 28, 6-(1-(4-Methyl-6-(trifluoromethyl)pyridin-3-yl)piperidin-4-yl)-2-thia-6-azaspiro[3.4]octane 2,2-dioxide], for which the EC50 in the test on EpiSC-derived OPCs (Mus musculus, 72 h) came out at 64 nM; in test [1] (Mus musculus, 24 h) it was 7.5 nM. Moreover, on human EBP (setting [2]), the Ki was 33 nM.

For the compound `O=S1(=O)CC2(CCN(C3CC[C@H](c4ccc(C(F)(F)F)nc4)C3)C2)C1` (single isomer, unassigned) [11D*], the EC50 was 280 nM in the test with EpiSC-derived OPCs (Mus musculus, 72 h) and 44 nM in test [1] (Mus musculus, 24 h). Further, on human EBP, the Ki was determined as 40 nM.

In the case of `Cn1nc(C(F)(F)F)cc1[C@H]1CC[C@H](N2CC[C@]3(CCS(=O)(=O)C3)C2)CC1` (single isomer, unassigned) [38C*], the EC50 with EpiSC-derived OPCs was found to be 50 nM; in test [1], 20 nM. For the same compound, at human EBP (setting [2]), the Ki came to 29 nM.

Consider `O=S1(=O)CC2(CCN([C@H]3CC[C@H](c4ccc(C(F)(F)F)cc4)CC3)C2)C1` [Compound 3A, 6-((1r,4r)-4-(4-(trifluoromethyl)phenyl)cyclohexyl)-2-thia-6-azaspiro[3.4]octane 2,2-dioxide], for which the EC50 was 5.1 nM with EpiSC-derived OPCs (Mus musculus, 72 h) and 2.1 nM in test [1] (Mus musculus, 24 h). In addition, on human EBP (setting [2]), the Ki was 20 nM.

Turning to `O=S1(=O)CC2(CCN([C@@H]3CC[C@@H](c4ccc(C(F)(F)F)cc4)C3)C2)C1` [Compound 1B, 6-((1R,3R)-3-(4-(trifluoromethyl)phenyl)cyclopentyl)-2-thia-6-azaspiro[3.4]octane 2,2-dioxide], the EC50 in the test on EpiSC-derived OPCs (Mus musculus, 72 h) is 1.8 nM; in test [1] (Mus musculus, 24 h) it was 2.6 nM. On human EBP (setting [2]), the Ki was determined as 100 nM.

As to `CC(C)n1nc(C(F)(F)F)cc1[C@H]1CC[C@@H](N2CCC3(C2)CS(=O)(=O)C3)C1` (single isomer, unassigned) [10B*], the EC50 worked out at 20 nM in the test with EpiSC-derived OPCs (Mus musculus, 72 h) and 2.9 nM in test [1] (Mus musculus, 24 h). The Ki at human EBP (setting [2]) was 19 nM.

Take `O=S1(=O)CC2(CCN([C@@H]3CCN(c4ccc(C(F)(F)F)nc4)C3)C2)C1` (single isomer, unassigned) [9B*]: the EC50 in the test on EpiSC-derived OPCs (Mus musculus, 72 h) was > 1000 nM; in test [1] (Mus musculus, 24 h), 394 nM. At human EBP (setting [2]), the Ki was 170 nM.

Take `O=S1(=O)CC2(CCN([C@H]3CC[C@H](c4cc(C(F)(F)F)nn4C4CC4)CC3)C2)C1` [Compound 12A, 6-((1r,4r)-4-(1-Cyclopropyl-3-(trifluoromethyl)-1H-pyrazol-5-yl)cyclohexyl)-2-thia-6-azaspiro[3.4]octane 2,2-dioxide]: the EC50 worked out at 37 nM with EpiSC-derived OPCs (Mus musculus, 72 h) and 11 nM in test [1] (Mus musculus, 24 h). For the same compound, the Ki at human EBP (setting [2]) was 28 nM.

For the compound `O=S1(=O)CC2(CCN([C@H]3CCCN(c4ccc(C(F)(F)F)cc4)C3)C2)C1` (single isomer, unassigned) [22B*], the EC50 in the test on EpiSC-derived OPCs (Mus musculus, 72 h) was 110 nM; in test [1] (Mus musculus, 24 h) it was 35 nM. Also, the Ki on human EBP (setting [2]) worked out at 70 nM.

Regarding `O=S1(=O)CC2(CCN([C@@H]3CC[C@H](c4ccc(C(F)(F)F)nc4)C3)C2)C1` (single isomer, unassigned) [11C*], the EC50 in the test with EpiSC-derived OPCs (Mus musculus, 72 h) amounted to 24 nM; in test [1] (Mus musculus, 24 h), 4.1 nM. For the same compound, the Ki at human EBP (setting [2]) came to 35 nM.

In the case of `O=S1(=O)CC2(CCN([C@H]3CO[C@@H](c4ccc(C(F)(F)F)cc4)C3)C2)C1` (stereo in doubt) [19A*, 6-((3R,5R)-5-(4-(Trifluoromethyl)phenyl)tetrahydrofuran-3-yl)-2-thia-6-azaspiro[3.4]octane 2,2-dioxide], the concentration giving a half-maximal response (EC50) amounted to 140 nM in the test with EpiSC-derived OPCs (Mus musculus, 72 h) and 23 nM in test [1] (Mus musculus, 24 h). Also, at human EBP (setting [2]), the Ki stood at 27 nM.

Regarding `Cn1nc(C(F)(F)F)cc1[C@H]1CC[C@H](N2CC[C@@]3(CCS(=O)(=O)C3)C2)CC1` (single isomer, unassigned) [27A*], the EC50 was determined as 53 nM in the test on EpiSC-derived OPCs and 26 nM in test [1] (Mus musculus, 24 h). In addition, the Ki at human EBP (setting [2]) was found to be 39 nM.

Regarding `CC(C)n1nc(-c2cncc(OC(F)F)c2)cc1[C@H]1CC[C@@H](N2CCC3(C2)CS(=O)(=O)C3)CC1` [Compound 33B, (Cis)-6-(4-(3-(5-(Difluoromethoxy)pyridin-3-yl)-1-isopropyl-1H-pyrazol-5-yl)cyclohexyl)-2-thia-6-azaspiro[3.4]octane 2,2-dioxide], the EC50 in the test on EpiSC-derived OPCs (Mus musculus, 72 h) amounted to 53 nM; in test [1] (Mus musculus, 24 h), 9.8 nM. Moreover, the Ki on human EBP (setting [2]) came to 33 nM.

`Cc1cc(C(F)(F)F)ncc1[C@H]1CC[C@@H](N2CCC3(C2)CS(=O)(=O)C3)CC1` [Compound 21A, 6-((1s,4s)-4-(4-Methyl-6-(trifluoromethyl)pyridin-3-yl)cyclohexyl)-2-thia-6-azaspiro[3.4]octane 2,2-dioxide]: the EC50 is 37 nM in the test on EpiSC-derived OPCs (Mus musculus, 72 h) and 12 nM in test [1] (Mus musculus, 24 h). Moreover, the Ki on human EBP (setting [2]) came out at 23 nM.

For the compound `Cn1nc(C(F)(F)F)cc1[C@H]1CC[C@@H](N2CC[C@@]3(CCS(=O)(=O)C3)C2)CC1` (single isomer, unassigned) [38B*], the EC50 turned out to be 400 nM in the test on EpiSC-derived OPCs (Mus musculus, 72 h) and 60 nM in test [1] (Mus musculus, 24 h). At human EBP (setting [2]), the Ki was determined as 24 nM.

For `CC(C)n1nc(-c2ccc(C(F)(F)F)nc2)nc1[C@H]1CC[C@@H](N2CCC3(C2)CS(=O)(=O)C3)C1` (single isomer, unassigned) [17D*], the EC50 in the test with EpiSC-derived OPCs (Mus musculus, 72 h) stood at 14 nM; in test [1] (Mus musculus, 24 h), 3.5 nM. Moreover, at human EBP (setting [2]), the Ki worked out at 20 nM.

Turning to `CC(C)n1nc(-c2cncc(C(F)(F)F)c2)cc1[C@@H]1CC[C@@H](N2CCC3(C2)CS(=O)(=O)C3)C1` (single isomer, unassigned) [13C*], the EC50 is 21 nM with EpiSC-derived OPCs (Mus musculus, 72 h) and 4.1 nM in test [1] (Mus musculus, 24 h). The Ki on human EBP (setting [2]) was determined as 21 nM.
